Measurements as given in article PMC6337391 (Molecules, 2019).
Where two headings read alike, the source gives them in different places.

What was measured:
[1] = test system: L929 mouse fibroblasts cells; parameters: method as in PMID 25798685; conditions: 24-h incubation, cited from earlier work
Aβ40 = biological target: T1, Aβ40 (Homo sapiens, UniProt P05067); assay: Circular dichroism study of Aβ40 aggregation; conditions: 50 µM compound, 50 µM Aβ40 (1:1), PB pH 7.33, 33 °C, 40 days
T1 construct: Amyloid peptide Aβ40 was purchased from AnaSpec Co; purchased AnaSpec Co. (Fremont, CA, USA)
Source text: The pathogenesis of Alzheimer’s disease (AD) is widely associated with the aggregation of β-amyloid peptide (Aβ) either to soluble oligomers or to higher-order polymeric insoluble fibrils. As a result, one of the main therapeutic strategies against AD targets the aggregation process of Aβ, and a great number of small molecules are being investigated for their potential to intervene in the assembly of Aβ and inhibit its neurotoxicity in vitro and in vivo [64]. Circular dichroism (CD) spectroscopy is commonly used to probe the secondary structure of polypeptides and to monitor conformational changes and interactions of polypeptides with small molecules. The typical aggregation process of Aβ produces characteristic CD spectra over time that reflect the conformational changes that occur as the random coil monomers are converted into β-sheet oligomers, and then gradually to larger β-sheet formations that finally produce amyloid fibrils. CD is, therefore, a valuable tool to monitor the aggregation process of Aβ and to study the effect of potential aggregation inhibitors. To further investigate the pleiotropic effects of chalcones against AD, selected compounds from our library, were subjected to CD studies in order to evaluate their potential to interfere with the aggregation process of Aβ40. […] The aggregation spectra of plain Aβ40 show at day 0 the typical random coil peak (negative maximum at 198 nm) the intensity of which gradually decreases as the peptide forms β–sheet structures (negative maximum at 222 nm, day 15) that further aggregate to higher order polymeric fibrils. The precipitation of the insoluble fibrils from solution eventually results in the loss of CD signal (days 30 and 40). […] In view of the above results, chalcone derivatives bearing a three-carbon chain linker, specifically c2, c3, and c4, were subsequently studied in order to assess the effect of further derivatization and the presence of the chalcone moiety in the structure. […] Overall, our CD study identified three new structures capable of interfering with the aggregation process of Aβ, out of which compounds c2 and c4 display additional protective actions against AD and add to the pleiotropic profile of the chalcone derivatives.
Preparation of Aβ stocks and solutions. Amyloid peptide Aβ40 was purchased from AnaSpec Co. (Fremont, CA, USA) (>95% pure). Aβ40 was gently dissolved without vortexing in Type 1 (Milli-Q) water to a final concentration of 100 μM. Solutions of Aβ in phosphate buffer (PB, 10 mM, pH 7.33) were prepared by adding equal volumes of PB to aliquots of the aqueous solution stock to achieve final concentration of 50 µM. The proper amount of the compounds c2, c3, c4, di, dii, and dvi were added to the Aβ solutions to achieve concentration of 50 μM. The secondary structural changes of Aβ were monitored for 40 days by CD. During this period, the amyloid peptide solutions were kept at an incubator at 33 °C under quiescent conditions.
Circular dichroism measurements. CD spectra were recorded on a JASCO J-715 spectropolarimeter (Jasco Co., Tokyo, Japan), at 33 °C in the range of 190–260 nm with a 1 mm path length quartz cuvette. Each spectrum was the average of three scans at a speed of 100 nm·min^−1 and a resolution of 0.5 nm. Three independent experiments were run for each condition and in each case solutions of plain Aβ were run as control (Figure 8). The analysis of the CD data was performed using the OriginPro 9 program.

[2] = parameters: method as in PMID 25798685; conditions: RP-TLC, methanol/water 70/30, SD < 10%; cited from earlier work
[3] = biological target: acetyl-cholinesterase (AChE) (Electrophorus electricus, UniProt O42275); conditions: cited from earlier work
soybean lipoxygenase [4] = biological target: T2, soybean lipoxygenase (Glycine max, UniProt P08170); parameters: method as in PMID 25798685; conditions: 100 μM; cited from earlier work
T2 sequence (P08170 1-839): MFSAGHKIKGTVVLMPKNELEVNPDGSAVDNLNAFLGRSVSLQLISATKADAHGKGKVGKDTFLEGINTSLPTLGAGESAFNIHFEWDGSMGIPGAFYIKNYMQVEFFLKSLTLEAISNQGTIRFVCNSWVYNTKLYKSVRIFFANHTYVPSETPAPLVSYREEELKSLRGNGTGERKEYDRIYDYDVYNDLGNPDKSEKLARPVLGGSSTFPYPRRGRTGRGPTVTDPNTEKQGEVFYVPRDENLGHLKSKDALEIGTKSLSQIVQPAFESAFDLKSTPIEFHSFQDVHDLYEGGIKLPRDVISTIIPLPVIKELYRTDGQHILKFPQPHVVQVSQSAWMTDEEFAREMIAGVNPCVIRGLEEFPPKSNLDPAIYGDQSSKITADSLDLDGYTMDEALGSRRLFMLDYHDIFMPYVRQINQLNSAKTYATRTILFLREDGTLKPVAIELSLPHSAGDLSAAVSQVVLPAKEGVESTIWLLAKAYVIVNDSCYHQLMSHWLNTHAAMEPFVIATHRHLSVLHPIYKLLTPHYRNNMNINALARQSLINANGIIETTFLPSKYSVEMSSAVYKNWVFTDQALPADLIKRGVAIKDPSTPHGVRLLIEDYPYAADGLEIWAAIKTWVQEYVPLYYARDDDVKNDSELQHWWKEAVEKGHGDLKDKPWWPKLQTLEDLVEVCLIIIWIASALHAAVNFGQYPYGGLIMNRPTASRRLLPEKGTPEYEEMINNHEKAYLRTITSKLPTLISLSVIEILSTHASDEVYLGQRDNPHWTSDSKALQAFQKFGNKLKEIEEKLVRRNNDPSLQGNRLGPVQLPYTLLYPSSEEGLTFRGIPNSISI

[5] = parameters: method as in PMID 25798685; conditions: cited from earlier work
[6] = parameters: method as in PMID 25798685; conditions: cited from earlier work; remark: listed apart in the source
[7] = parameters: method as in PMID 25798685; conditions: DPPH, cited from earlier work
[8] = In vitro lipid peroxidation of liposomes
[9] = ABTS•+ decolorization assay
How it was run: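 Compounds (10 mM DMSO stocks, diluted) added to ABTS•+ radical generated by potassium persulfate oxidation of ABTS. Decolorization followed as absorbance at room temperature, with Trolox as standard.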

soybean lipoxygenase [10] = biological target: T2, soybean lipoxygenase; assay: biochemical; format: biochemical; conditions: soybean LOX
How it was run: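 Soybean LOX (enzyme solution 1/9 × 10^−4 w/v in saline) incubated at room temperature with sodium linoleate ([…]) in tris buffer pH 9. Compounds added from DMSO stocks. IC50 derived from several concentrations.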

[11] = Reducing activity with the stable radical DPPH
How it was run: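 DPPH (final 0.05 mM) in absolute ethanol mixed with an equal volume of compound at 0.05 or 0.1 mM, ethanol as control. Absorbance at 517 nm read at room temperature after 20 and 60 min, expressed as reducing activity RA%.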

[12] = Lipophilicity as RM values by RP-TLC; format: physicochemical; parameters: key: RM = log[(1/Rf) − 1]; conditions: methanol/water 70/30, SD < 10%
How it was run: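 Reversed-phase TLC on silica gel plates impregnated with 5% (v/v) liquid paraffin, methanol/water 70/30 (v/v) mobile phase, saturated tanks at 24 °C, UV detection. RM = log[(1/Rf) − 1] from five Rf measurements.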

[13] = Inhibition of linoleic acid lipid peroxidation (AAPH)
How it was run: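 Sodium linoleate oxidation was initiated by AAPH in 0.05 M phosphate buffer, pH 7.4, at 37 °C, with test compound present and DMSO as blank. Conjugated diene hydroperoxide formation was followed as the absorbance increase at 234 nm.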

[14] = test system: L929 mouse fibroblasts cells; assay: Cytotoxicity, propidium iodide fluorescence method; format: cell-based; conditions: 24-h incubation
How it was run: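 L929 cells in EMEM with 10% horse serum were allowed to attach for 24 h, then exposed to 1, 10, 20, 50 and 100 μM compound for 24 h at 37 °C. Cells were detached, stained with propidium iodide, and cell death was measured by flow cytometry.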

Chain of acetyl-cholinesterase (AChE) (O42275 24-633): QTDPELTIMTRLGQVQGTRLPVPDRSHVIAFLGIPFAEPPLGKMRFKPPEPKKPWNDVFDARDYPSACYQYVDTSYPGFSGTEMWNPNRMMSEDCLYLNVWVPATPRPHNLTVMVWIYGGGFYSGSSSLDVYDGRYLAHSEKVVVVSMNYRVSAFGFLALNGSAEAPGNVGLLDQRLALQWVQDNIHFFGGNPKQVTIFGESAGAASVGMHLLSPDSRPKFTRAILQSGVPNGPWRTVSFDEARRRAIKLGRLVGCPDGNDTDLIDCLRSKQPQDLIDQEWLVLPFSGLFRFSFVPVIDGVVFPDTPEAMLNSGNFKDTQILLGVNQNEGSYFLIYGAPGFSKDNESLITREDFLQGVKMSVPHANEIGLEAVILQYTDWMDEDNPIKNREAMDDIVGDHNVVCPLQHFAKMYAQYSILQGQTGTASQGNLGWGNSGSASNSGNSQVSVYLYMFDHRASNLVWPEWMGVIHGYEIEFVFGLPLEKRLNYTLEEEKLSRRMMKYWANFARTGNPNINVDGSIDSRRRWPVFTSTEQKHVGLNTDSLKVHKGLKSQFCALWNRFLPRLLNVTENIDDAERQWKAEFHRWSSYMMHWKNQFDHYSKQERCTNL
T1 sequence (P05067 672-711 limits assumed): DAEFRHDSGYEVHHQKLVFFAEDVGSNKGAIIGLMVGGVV

Structure (SMILES)	1 μM Average (% pi) ± σ [1] [%]	10 μM Average (% pi) ± σ [1] [%]	20 μM Average (% pi) ± σ [1] [%]	50 μM Average (% pi) ± σ [1] [%]	100 μM Average (% pi) ± σ [1] [%]	effect on the aggregation process of Aβ40 (CD spectra) (Aβ40)	RM [2]	% AChE Inhb. @ 100 μM [3] [%]	% LOX Inhb. @ 100 μM (soybean lipoxygenase [4])	ABTS•+ Inhb. % @ 100 μM [5]	AAPH% @ 100 μM (anti-lipid peroxidation) [6] [%]	RA% 100 μM 20 min [7]	RA% 100 μM 60 min [7]	% Inhb. of Liposomes LP @ 100 μM [8] [%]	further results
CC(=O)c1ccc(OCCCOc2ccc(C(C)=O)cc2)cc1 [dii, 1,1′-((propane-1,3-diylbis-(oxy))bis(4,1-phenylene))diethanone]	9 ± 4.5	8.5 ± 4.24	13 ± 4.5	42 ± 3.5	42 ± 3.5	modified the aggregation course of Aβ40 by stabilizing a β-sheet structure that did not seem to evolve further	−0.23	20	no	No	20	No	no	–	–
O=C(/C=C/c1ccc(OCc2ccc(Br)cc2)cc1)c1ccc(OCCCOc2ccc(C(=O)/C=C/c3ccc(OCc4ccc(Br)cc4)cc3)cc2)cc1 [c1, (2E,2′E)-1,1′-((propane-1,3-diylbis(oxy))bis(4,1-phenylene))bis(3-(4-((4-bromobenzyl)oxy)phenyl)prop-2-en-1-one)]	38.5 ± 6.9	49.5 ± 7.8	53.5 ± 0.71	74 ± 5.6	74 ± 5.6	–	−0.68	23	41%	no	42	36%	55%	–	–
CN(C)c1ccc(/C=C/C=C/C(=O)c2ccc(OCCCOc3ccc(C(=O)/C=C/C=C/c4ccc(N(C)C)cc4)cc3)cc2)cc1 [c3, (2E,2′E, 4E, 4′E)-1,1′-((propane-1,3-diylbis-(oxy))bis(4,1-phenylene)) bis-(5-(4-(dimethylamino)phenyl)penta-2,4-dien-1-one)]	81 ± 0.8	90 ± 1	100 ± 0	100 ± 0	100 ± 0	no significant effect on the aggregation process of Aβ40 was observed	0.77	95	93%	99%	70	17%	14%	81	–
O=C(/C=C/c1cccc2ccccc12)c1ccc(OCCCOc2ccc(C(=O)/C=C/c3cccc4ccccc34)cc2)cc1 [c4, (2E,2′E)-1, 1′-((propane-1,3-diylbis-(oxy))bis-(4,1-phenylene)) bis-(3-(naphthalen-1-yl)prop-2-en-1-one)]	29.5 ± 3.5	42 ± 4.6	46 ± 5.6	67 ± 9.2	67 ± 9.2	stabilized β-sheet assemblies that did not evolve further into insoluble fibrillar aggregates	0.43	58	100%	no	95	19%	50%	3	–
Cc1ccc(/C=C/C(=O)c2ccc(OCCCOc3ccc(C(=O)/C=C/c4ccc(C)o4)cc3)cc2)o1 [c12, (2E,2′E)-1,1′-((propane-1,3-diylbis(oxy))bis(4,1-phenylene))bis(3-(5-methylfuran-2-yl)prop-2-en-1-one)]	–	–	–	–	–	–	–	–	–	–	–	–	–	74	ABTS•+ Inhb. % @ 100 μM [9]: 17%; % LOX Inhb. @ 100 μM (soybean lipoxygenase [10]; 100 μM): 52%; IC50 (soybean lipoxygenase [10]; read-out: LOX IC50): 96 µM; RA% 100 μM 20 min ([11]; 20 min): No; RA% 100 μM 60 min ([11]; 60 min): no; RM [12]: −0.96; AAPH% @ 100 μM (anti-lipid peroxidation) [13]: 68%; 1 μM Average (% pi) ± σ ([14]; 1 μM): 13.22 ± 0.64%; 10 μM Average (% pi) ± σ ([14]; 10 μM): 31.31 ± 4.84%; 20 μM Average (% pi) ± σ ([14]; 20 μM): 53.79 ± 16.95%; 50 μM Average (% pi) ± σ ([14]; 50 μM): 84.03 ± 2.25%; 100 μM Average (% pi) ± σ ([14]; 100 μM): 84.03 ± 2.25%
